Assays:
[1] = tested on: PC3-PIP/flu tumor-bearing mice; experiment: Biodistribution studies; assay type: in vivo, BALB/c nude mice
[2] = PBS/n-octanol distribution coefficient (logD); assay type: physicochemical; conditions: PBS pH 7.4/n-octanol
[3] = tested on: PSMA-negative PC-3 flu cells; experiment: Cell uptake in PSMA-negative cells; assay type: cell-based
[4] = tested on: PSMA-positive PC-3 PIP cells; experiment: Cell uptake and internalization; assay type: cell-based; conditions: 4 h incubation; % of total added activity
[5] = Radioligand integrity by thin-layer chromatography; assay type: physicochemical; conditions: over a period of 48 h
Experimental: The PSMA ligands used in this study were synthesized using solid-phase chemistry methods as previously reported. The labeling of the PSMA ligands with actinium-225 was performed at ITM Medical Isotopes GmbH, Munich, Germany (Supplementary Material: Section S1). The radioligands (~50 kBq/nmol; ~0.5 MBq/mL) were shipped to the Paul Scherrer Institute (PSI) overnight followed by assessing their integrity using thin-layer chromatography. […] Depending on the experiment, the molar activity of the radioligands was adjusted by adding unlabeled ligand and the final formulation was prepared by adding vehicle (saline with 0.05% bovine serum albumin (BSA)) to obtain the desired activity concentration. Radiolabeling of SibuDAB with lutetium-177 (5–10 MBq/nmol) was performed as previously reported.

PSMA = molecular target: T1, PSMA (Homo sapiens, UniProt Q04609); experiment: PSMA-binding affinity (KD values) on PC-3 PIP cells; conditions: on ice
T1 construct: expressed in transfected cells; host or cells: PC-3 PIP prostate cancer cells (transduced to express PSMA), provided by Prof; Dr. Martin Pomper, Johns Hopkins University
T1 sequence (Q04609 whole entry): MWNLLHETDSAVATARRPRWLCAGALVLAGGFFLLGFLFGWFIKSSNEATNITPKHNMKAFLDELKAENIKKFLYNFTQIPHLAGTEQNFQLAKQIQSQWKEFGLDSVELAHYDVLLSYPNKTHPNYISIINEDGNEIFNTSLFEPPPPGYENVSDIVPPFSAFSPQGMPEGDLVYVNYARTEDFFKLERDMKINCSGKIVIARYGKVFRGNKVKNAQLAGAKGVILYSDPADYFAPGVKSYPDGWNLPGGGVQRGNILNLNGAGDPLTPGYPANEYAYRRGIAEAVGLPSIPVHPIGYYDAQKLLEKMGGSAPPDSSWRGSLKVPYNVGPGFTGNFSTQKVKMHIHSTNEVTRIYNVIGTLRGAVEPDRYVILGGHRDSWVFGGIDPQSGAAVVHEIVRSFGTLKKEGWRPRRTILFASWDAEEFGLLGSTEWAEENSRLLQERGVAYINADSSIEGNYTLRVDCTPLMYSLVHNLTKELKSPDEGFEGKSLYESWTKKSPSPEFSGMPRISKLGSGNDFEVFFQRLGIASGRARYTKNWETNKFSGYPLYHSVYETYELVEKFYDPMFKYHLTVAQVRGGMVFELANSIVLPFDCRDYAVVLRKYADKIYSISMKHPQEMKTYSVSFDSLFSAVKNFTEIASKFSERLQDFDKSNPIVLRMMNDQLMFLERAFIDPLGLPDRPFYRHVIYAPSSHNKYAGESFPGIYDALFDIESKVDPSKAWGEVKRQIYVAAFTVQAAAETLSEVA

O=C([O-])CN1CCN(CC(=O)[O-])CCN(CC(=O)NCC2CCC(C(=O)NC(Cc3ccc4ccccc4c3)C(=O)NCCCCC(NC(=O)NC(CCC(=O)O)C(=O)O)C(=O)O)CC2)CCN(CC(=O)[O-])CC1.[225Ac+3] (stereo not shown) [[^225Ac]Ac-PSMA-617]
Blood, accumulated activity ([1]; 1 h p.i.): 0.62 ± 0.12 % IA/g | Bone, accumulated activity ([1]; 1 h p.i.): 0.46 ± 0.13 % IA/g | Heart, accumulated activity ([1]; 1 h p.i.): 0.35 ± 0.09 % IA/g | Intestines, accumulated activity ([1]; 1 h p.i.): 0.29 ± 0.12 % IA/g | Kidneys, accumulated activity ([1]; 1 h p.i.): 12 ± 3 % IA/g | Liver, accumulated activity ([1]; 1 h p.i.): 0.46 ± 0.10 % IA/g | Lung, accumulated activity ([1]; 1 h p.i.): 0.76 ± 0.23 % IA/g | Muscle, accumulated activity ([1]; 1 h p.i.): 0.18 ± 0.06 % IA/g | PC-3 PIP tumor, accumulated activity ([1]; 1 h p.i.): 46 ± 13 % IA/g | PC-3 flu tumor, accumulated activity ([1]; 1 h p.i.): 0.30 ± 0.06 % IA/g | Salivary glands, accumulated activity ([1]; 1 h p.i.): 0.30 ± 0.06 % IA/g | Spleen, accumulated activity ([1]; 1 h p.i.): 0.68 ± 0.09 % IA/g | Stomach, accumulated activity ([1]; 1 h p.i.): 0.37 ± 0.14 % IA/g | Tumor-to-blood ratio ([1]; 1 h p.i.): 73 ± 7 | Tumor-to-kidney ratio ([1]; 1 h p.i.): 3.7 ± 0.3 | Tumor-to-liver ratio ([1]; 1 h p.i.): 99 ± 8 | Blood, accumulated activity ([1]; 4 h p.i.): ≤ 0.10 % IA/g | Bone, accumulated activity ([1]; 4 h p.i.): 0.14 ± 0.04 % IA/g | Heart, accumulated activity ([1]; 4 h p.i.): ≤ 0.10 % IA/g | Intestines, accumulated activity ([1]; 4 h p.i.): ≤ 0.10 % IA/g | Kidneys, accumulated activity ([1]; 4 h p.i.): 3.5 ± 0.6 % IA/g | Liver, accumulated activity ([1]; 4 h p.i.): 0.31 ± 0.04 % IA/g | Lung, accumulated activity ([1]; 4 h p.i.): ≤ 0.10 % IA/g | Muscle, accumulated activity ([1]; 4 h p.i.): ≤ 0.10 % IA/g | PC-3 PIP tumor, accumulated activity ([1]; 4 h p.i.): 43 ± 10 % IA/g | PC-3 flu tumor, accumulated activity ([1]; 4 h p.i.): 0.11 ± 0.02 % IA/g | Salivary glands, accumulated activity ([1]; 4 h p.i.): ≤ 0.10 % IA/g | Spleen, accumulated activity ([1]; 4 h p.i.): 0.12 ± 0.05 % IA/g | Stomach, accumulated activity ([1]; 4 h p.i.): ≤ 0.10 % IA/g | Tumor-to-blood ratio ([1]; 4 h p.i.): 2593 ± 825 | Tumor-to-kidney ratio ([1]; 4 h p.i.): 13 ± 4 | Tumor-to-liver ratio ([1]; 4 h p.i.): 142 ± 23 | Blood, accumulated activity ([1]; 24 h p.i.): ≤ 0.10 % IA/g | Bone, accumulated activity ([1]; 24 h p.i.): 0.11 ± 0.01 % IA/g | Heart, accumulated activity ([1]; 24 h p.i.): ≤ 0.10 % IA/g | Intestines, accumulated activity ([1]; 24 h p.i.): ≤ 0.10 % IA/g | Kidneys, accumulated activity ([1]; 24 h p.i.): 1.2 ± 0.2 % IA/g | Liver, accumulated activity ([1]; 24 h p.i.): 0.39 ± 0.06 % IA/g | Lung, accumulated activity ([1]; 24 h p.i.): ≤ 0.10 % IA/g | Muscle, accumulated activity ([1]; 24 h p.i.): ≤ 0.10 % IA/g | PC-3 PIP tumor, accumulated activity ([1]; 24 h p.i.): 37 ± 9 % IA/g | PC-3 flu tumor, accumulated activity ([1]; 24 h p.i.): 0.11 ± 0.08 % IA/g | Salivary glands, accumulated activity ([1]; 24 h p.i.): ≤ 0.10 % IA/g | Spleen, accumulated activity ([1]; 24 h p.i.): 0.13 ± 0.04 % IA/g | Stomach, accumulated activity ([1]; 24 h p.i.): ≤ 0.10 % IA/g | Tumor-to-blood ratio ([1]; 24 h p.i.): 4991 ± 3208 | Tumor-to-kidney ratio ([1]; 24 h p.i.): 33 ± 9 | Tumor-to-liver ratio ([1]; 24 h p.i.): 97 ± 20 | Blood, accumulated activity ([1]; 48 h p.i.): ≤ 0.10 % IA/g | Bone, accumulated activity ([1]; 48 h p.i.): 0.12 ± 0.04 % IA/g | Heart, accumulated activity ([1]; 48 h p.i.): ≤ 0.10 % IA/g | Intestines, accumulated activity ([1]; 48 h p.i.): ≤ 0.10 % IA/g | Kidneys, accumulated activity ([1]; 48 h p.i.): 0.79 ± 0.13 % IA/g | Liver, accumulated activity ([1]; 48 h p.i.): 0.44 ± 0.16 % IA/g | Lung, accumulated activity ([1]; 48 h p.i.): ≤ 0.10 % IA/g | Muscle, accumulated activity ([1]; 48 h p.i.): ≤ 0.10 % IA/g | PC-3 PIP tumor, accumulated activity ([1]; 48 h p.i.): 31 ± 3 % IA/g | PC-3 flu tumor, accumulated activity ([1]; 48 h p.i.): 0.26 ± 0.4 % IA/g | Salivary glands, accumulated activity ([1]; 48 h p.i.): ≤ 0.10 % IA/g | Spleen, accumulated activity ([1]; 48 h p.i.): 0.13 ± 0.02 % IA/g | Stomach, accumulated activity ([1]; 48 h p.i.): ≤ 0.10 % IA/g | Tumor-to-blood ratio ([1]; 48 h p.i.): 1716 ± 860 | Tumor-to-kidney ratio ([1]; 48 h p.i.): 37 ± 6 | Tumor-to-liver ratio ([1]; 48 h p.i.): 68 ± 15 | logD value [2]: ≤ −3.9 | Cell uptake [3]: < 1% | Cell uptake [4]: 63 ± 5% | Internalization (internalized fraction) [4]: 19 ± 3% | intact radioligand [5]: > 99% | Kd (PSMA): 11 nM
